From patent publication US20090209638A1, “TREATMENT FOR DEPRESSIVE DISORDERS” (priority 2006, published 2009)

Columns and labels:
cerebellar cGMP = assay: Stress-induced cerebellar cGMP elevation; assay type: in vivo, Rats; conditions: for activity in the stress-induced cGMP assay: data not shown, levels similar to what was observed for MA-1
Protocol: Protocol: Animals were placed into a shock chamber with a steel grid floor and shocked at 1 mA for 10 seconds. One minute following the stressor, the animals were placed into a plastic restraint tube and sacrificed by microwave irradiation (1.8 sec at 3.5 kW). The cerebellum was rapidly removed, snap frozen, and stored at −80° C. prior to the cGMP assay. Non-stressed animals were taken directly from their cages and sacrificed by microwave irradiation and tissues were processed in a similar manner. Drug dosing was performed 30-60 min prior to foot-shock stress. For the cGMP assay, the tissue was homogenized in 2 ml of 1% perchloric acid using a Brinkman Polytron at setting #5 for ˜15 sec each and placed on ice until all samples were homogenized. Samples were then placed in an 85C water bath for 5 min, centrifuged at 2500G for 15 min, and ˜0.5 ml of the supernatant was collected for analysis. Supernatants were diluted 1:20 in sodium acetate buffer according to the directions of the manufacturer of the 1251-cGMP flashplates. Diluted samples were incubated overnight in flashplate wells with 1251-cGMP, assayed on a gamma-counter plate reader, and converted to pmol cGMP/mg tissue using a standard curve generated in the same experiment.

Rats [1] = assay: Rat Forced Swim Test (behavioral despair test); assay type: in vivo; conditions: for decrease in immobility time: dark phase
Protocol: Protocol: Animals were tested in the forced swim test using the protocol originally described by Porsolt et al (Eur. J. Pharmacol., 47, 379-391,1978). Rats were individually placed in a cylinder (Height=40 cm, Diameter=20 cm) containing 13 cm water (25° C.) for 15 minutes on the first day of the experiment (Session 1) and were then put back in the water 24 hours later for a 5 minute test (Session 2). The duration of immobility during the 5 minute test was measured. Six rats were studied per group. The test was performed blind. Session 1 and Session 2 were performed either during the light cycle, i.e. between 2.5 and 5.5 hours after lights-on, or during the dark cycle, i.e. between 2.5 and 5.5 hours after lights-off. The tests during the light cycle were therefore performed between 9:30 am and 12:30 pm, whereas the tests during the dark cycle, because of the light cycle shift, were performed between 14:30 pm and 17:30 pm.
To permit the 2 phases of the experiment (light phase and dark phase) to be performed on the same day by the same laboratory technician, the animals to be tested during the dark phase were submitted to a light cycle shift 12 days prior to the first session of the forced swim test whereby the light/dark cycle was advanced 7 hours (lights-on: 0:00 am, lights-off: 12:00 pm). The 12-day period was estimated to be sufficient for the dark-cycle animals to adjust to the shift. To habituate the rats to the light cycle shift, the dark-cycle animals were submitted to the shift 12 days prior to Session 1. To ensure otherwise similar conditions between the light-cycle and dark-cycle animals, all animals to be used in the experiment were from the same delivery batch and were placed in their experimental living cages at the same time, i.e. 12 days before Session 1.
Testing during the light phase was performed under normal laboratory illumination, and testing during the dark phase was performed under infrared illumination. MA-1, agomelatine, and melatonin were evaluated at 2 oral (p.o.) doses each, administered twice (24 hours and 1 hour before Session 2). The first administration was given immediately after Session 1. Imipramine (64 mg/kg p.o.), administered twice under the same experimental conditions, was used as reference substance.

Mice = assay: Mouse Forced Swim Test; assay type: in vivo
Protocol: Protocol: Animals were maintained on a 12:12 LD cycle with lights on at 0600 h. Mice were placed into the testing room at least 1 h prior to the start of the test. Vehicle, amitriptyline and MA-1 were administered under one of three conditions: A) acute treatment, animals dosed 30 minutes prior to testing; B) 4 day subchronic AM treatment, with dosing occurring during the early morning period (0900-1100 h), with the final dose occurring 30 min prior to testing; and C) subchronic PM treatment with dosing occurring during the evening period (1730-1800 h, right before lights off), and the forced swim test took place the following morning. Animals were tested in the forced swim test using a modification of the protocol originally described by Porsolt et al. (1978). Mice were placed into 1 L beakers (KIMAX #14005) filled with 800 ml of water (20-22° C.) for a 7 min swim period. Animals were only scored for the last 5 minutes of the test and were assigned either a “0” if they were actively swimming or “1” if they were immobile, except for small movements needed to keep afloat. During the 5 minute scoring period, there are ten 30 sec intervals scored for a total possible score of 0-10 for each mouse. Data was reported as median (interquartile range). Each study was run independently with separate groups of naive mice. Data were analyzed using Statview (SAS, Cary, N.C.) with a Kruskal-Wallis analysis, followed by Mann-Whitney U-test with the significance level set at p<0.05.

Rats [2] = assay: Modified forced swim test in rats (study not reported); assay type: in vivo, rat; conditions: 5 mg/kg and 10 mg/kg
Solubility of MA-1 = assay type: physicochemical
[3] = biological target: Melatonin-1 (MT1) receptor (Homo sapiens, UniProt P48039); conditions: cited from earlier work
[4] = biological target: T1, Melatonin-2 (MT2) receptor (Homo sapiens, UniProt P49286); conditions: cited from earlier work
T1 sequence (P49286 1-362): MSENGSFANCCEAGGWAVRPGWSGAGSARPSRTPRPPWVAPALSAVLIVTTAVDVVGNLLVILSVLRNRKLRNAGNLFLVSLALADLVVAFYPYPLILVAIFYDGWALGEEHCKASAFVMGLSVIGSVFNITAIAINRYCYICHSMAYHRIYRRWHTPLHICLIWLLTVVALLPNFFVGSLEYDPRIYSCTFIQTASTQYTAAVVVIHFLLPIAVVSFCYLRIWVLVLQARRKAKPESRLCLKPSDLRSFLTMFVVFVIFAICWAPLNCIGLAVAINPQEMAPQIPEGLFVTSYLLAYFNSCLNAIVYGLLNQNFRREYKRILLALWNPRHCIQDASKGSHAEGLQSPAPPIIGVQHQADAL

[5] = dark cycle, 10 mg/kg p.o. −24 h and −60 min
[6] = dark cycle, 50 mg/kg p.o. −24 h and −60 min
[7] = light cycle, 10 mg/kg p.o. −24 h and −60 min
[8] = light cycle, 50 mg/kg p.o. −24 h and −60 min
[9] = dark cycle, 64 mg/kg p.o. −24 h and −60 min
[10] = light cycle, 64 mg/kg p.o. −24 h and −60 min
[11] = condition A: acute treatment, testing 30 minute post-dose
[12] = condition B: 4-day sub-chronic AM dosing, testing 30 minutes following final dose
[13] = condition C: 4-day sub-chronic PM dosing, testing the following morning
[14] = dark cycle, 1 mg/kg p.o. −24 h and −60 min
[15] = light cycle, 1 mg/kg p.o. −24 h and −60 min

Sequence of Melatonin-1 (MT1) receptor (P48039 whole entry): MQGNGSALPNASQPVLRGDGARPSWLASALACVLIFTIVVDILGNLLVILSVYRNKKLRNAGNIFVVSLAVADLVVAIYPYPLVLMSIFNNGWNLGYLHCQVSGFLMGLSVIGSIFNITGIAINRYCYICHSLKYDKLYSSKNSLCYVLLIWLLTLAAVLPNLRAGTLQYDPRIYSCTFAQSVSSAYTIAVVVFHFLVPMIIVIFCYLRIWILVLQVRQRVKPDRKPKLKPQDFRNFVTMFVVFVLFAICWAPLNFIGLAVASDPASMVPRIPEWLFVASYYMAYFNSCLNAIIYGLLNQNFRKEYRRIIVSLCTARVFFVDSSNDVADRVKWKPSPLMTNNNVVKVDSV

| Compound | activity in the stress-induced cGMP assay (cerebellar cGMP) | DURATION OF IMMOBILITY % change from control (Rats [1]; [5]) | DURATION OF IMMOBILITY mean ± s.e.m. (Rats [1]; [5]) | DURATION OF IMMOBILITY % change from control (Rats [1]; [6]) | DURATION OF IMMOBILITY mean ± s.e.m. (Rats [1]; [6]) | decrease in immobility time (Rats [1]; 10 mg/kg) | DURATION OF IMMOBILITY % change from control (Rats [1]; [7]) | DURATION OF IMMOBILITY mean ± s.e.m. (Rats [1]; [7]) | DURATION OF IMMOBILITY % change from control (Rats [1]; [8]) | DURATION OF IMMOBILITY mean ± s.e.m. (Rats [1]; [8]) | activity in mouse forced swim model (Mice; [11]) | activity in mouse forced swim model (Mice; [12]) | activity in mouse forced swim model (Mice; [13]) | further results |
| --- | --- | --- | --- | --- | --- | --- | --- | --- | --- | --- | --- | --- | --- | --- |
| COc1ccc2cccc(CCNC(C)=O)c2c1 [agomelatine] | shown activity | −60% | 84.8 ± 8.2 s | −33% | 140.2 ± 19.1 s | 60% | −42% | 97.8 ± 13.5 s | +13% | 191.0 ± 9.4 NS s |  |  |  | decrease in immobility time (Rats [1]; 50 mg/kg): 33% |
| CN(C)CCCN1c2ccccc2CCc2ccccc21 [Imipramine] |  |  |  |  |  |  |  |  |  |  |  |  |  | DURATION OF IMMOBILITY % change from control (Rats [1]; [9]): −70%; DURATION OF IMMOBILITY mean ± s.e.m. (Rats [1]; [9]): 63.0 ± 11.1 s; DURATION OF IMMOBILITY % change from control (Rats [1]; [10]): −71%; DURATION OF IMMOBILITY mean ± s.e.m. (Rats [1]; [10]): 49.5 ± 10.6 s |
| COc1ccc2[nH]cc(CCNC(C)=O)c2c1 [Melatonin, melatonin] | shown activity | −37% | 132.8 ± 16.5 s | −21% | 166.8 ± 16.6 s |  | −40% | 101.3 ± 18.8 s | 0% | 167.7 ± 10.8 NS s |  |  |  |  |
| CN(C)CCC=C1c2ccccc2CCc2ccccc21 [Amitriptyline] |  |  |  |  |  |  |  |  |  |  | active | active | did not show activity |  |
| CCC(=O)NC[C@@H]1C[C@H]1c1cccc2c1CCO2 [MA-1, (1R-trans)-N-[[2-(2,3-dihydro-4-benzofuranyl)cyclopropyl]methyl]propanamide] |  | −41% | 124.8 ± 18.8 s |  |  | 41% | −25% | 126.3 ± 26.9 NS s |  |  | did not demonstrate activity | did not demonstrate activity | did not demonstrate activity | attenuation of shock-induced increase in cerebellar cGMP levels (cerebellar cGMP; rats, electric shock 1 mA 10 s, doses of 0.1-10 mg/kg, dosed 30-60 min prior to foot-shock, no dose-responsiveness): ~50%; DURATION OF IMMOBILITY % change from control (Rats [1]; [14]): −37%; DURATION OF IMMOBILITY mean ± s.e.m. (Rats [1]; [14]): 133.0 ± 6.6 s; decrease in immobility time (Rats [1]; 1 mg/kg): 37%; DURATION OF IMMOBILITY % change from control (Rats [1]; [15]): −14%; DURATION OF IMMOBILITY mean ± s.e.m. (Rats [1]; [15]): 145.3 ± 26.0 NS s; effects on immobility, swimming, or climbing statistically different from vehicle (Rats [2]): did not show effects; effect of pH on aqueous solubility (Solubility of MA-1): practically unaffected by pH; solubility (Solubility of MA-1; in 95% ethanol, methanol, acetonitrile, ethyl acetate, isopropanol, polyethylene glycols (PEG-300 and PEG-400)): very soluble or freely soluble; solubility (Solubility of MA-1; in water): only slightly soluble; native pH of a saturated solution in water (Solubility of MA-1; saturated solution in water): 8.5; affinity [3]: high affinity; affinity [4]: high affinity |
